pIC50: −log10 of the molar value. Where two headings read alike, the source gives them in different places.
How the values were obtained:
ATF4 = ATF4 expression inhibition assay (ATF4 5'UTR luciferase reporter, Tg-stressed HEK293T cells); format: cell-based, human; conditions: for inhibition at 0.1 µM: read-out: % ATF4 inhibition at 100 nM; for pIC50: read-out: ATF4 inhbition IC50; for inhibition at 1 µM: read-out: % ATF4 inhibition at 1 μM
Procedure: The ATF4 reporter was prepared by fusing the human full length 5′UTR of ATF4 (NCBI Accession No. BC022088.2) upstream of the firefly luciferase coding sequence lacking the initiator methionine. The fused sequence was cloned into pLenti-EF1a-C-Myc-DDK-IRES-Puro cloning vector (Origen #PS100085) using standard methods. Virus production was carried out by using Lenti-X™ Packaging Single Shots Protocol (Clonetech #631276). Viral particles were used to transduce HEK293T cells (ATCC #CRL-3216, ATCC Manassas, Va.), which were subsequently selected with puromycin to generate stable cell line. Cells were maintained at 37° C. and 5% CO2 in DMEM-F12 (Hyclone #SH30023.02) supplemented with 10% heat-inactivated fetal bovine serum (Gibco #16000-044), 2 mM L-glutamine (Gibco #25030-081), 100 U/ml penicillin, and 100 μg/ml streptomycin (Gibco #15140-122).
HEK293T cells carrying the ATF4 luciferase reporter were plated on 96-well plates (Nunc) at 10,000 cells per well. Cells were treated two days after seeding with 100 nM thapsigargin (Tg) (Sigma-Aldrich #T9033) in the presence of 100 nM or 1 μM. For the assessment of the half-maximal inhibitory concentration (IC50) for selected compounds, dose-response assays were performed. Compounds were serially diluted using DMSO ranging from 0.1 nM to 1 μM. Cells without treatment or cells treated with Tg alone were used as controls. Assay plates containing cells were incubated for 3 hours at 37° C.
Luciferase reactions were performed using Luciferase Assay System (Promega #E1501) as specified by the manufacturer. Luminescence was read with an integration time of 1 s and a gain of 110 using a Cytation-5 multi-mode microplate reader (BioTek). Relative luminescence units were normalized to Tg treatment (0% inhibition) and untreated cells (100% inhibition) and the percentage of ATF4 inhibition was calculated.
Percentages of ATF4 inhibition after induction with Tg in the presence of 100 nM or 1 μM of certain test compounds are shown in Table 2. Also shown in Table 2 is the calculated IC50 for certain test compounds. […] Accordingly, inhibition of ATF4 expression as a result of the test compound indicates suppression of the ISR pathway.

[1] = tested on: Chinese hamster ovary (CHO) cells; experiment: Protein translation assay (puromycin labelling, CHO cells); format: cell-based; conditions: media alone = 100%; for activity at 1 µM: Cricetulus griseus, CHO
Procedure: Chinese hamster ovary (CHO) cells were maintained at 37° C. and 5% CO2 in Dulbecco's Modified Eagle's Media (DMEM) supplemented with 10% fetal bovine serum, 2 mM L-glutamine, 100 U/ml penicillin, and 100 μg/ml streptomycin. After reaching 80% of confluence, cells were detached and seeded on 6 well plates in complete media, allowed to recover overnight and treated for 2 hours with 1 μM of the test compound (to assess protein synthesis levels in unstressed condition), or for 1 hour with 100 nM or 1 μM of the test compound and then co-treated with 300 nM Tg and 100 nM or 1 μM of the test compound (to assess the recovery of protein synthesis in a stressed condition). Cells treated with Tg alone were used as controls.
After the 2 hours treatments, media were replaced by adding 10 μg/ml puromycin (Sigma Aldrich #P8833) in complete media for 30 min. Media were removed and cells were lysed with SDS-PAGE lysis buffer. Lysates were transferred to 1.5 ml tubes and sonicated for 3 min and total protein amount were quantified using BCA Protein Assay Kit (Pierce). Equal amount of protein (30 μg) was loaded on SDS-PAGE gels. Proteins were transferred onto 0.2 μm PVDF membranes (BioRad) and probed with primary antibodies diluted in Tris-buffered saline supplemented with 0.1% Tween 20 (Merck #S6996184 505) and 3% bovine serum albumin (Rockland #BSA-50).
Puromycin (12D10) (Merck #MABE343) and β-actin (Sigma Aldrich #A5441) antibodies were used as primary antibody. A HRP-conjugated secondary antibody (Rockland) was employed to detect immune-reactive bands using enhanced chemiluminescence (ECL Western Blotting Substrate, Pierce). Quantification of protein bands was done by densitometry using ImageJ software.
Percent increase of protein synthesis in unstressed cells (without Tg treatment) in the presence of media alone or certain test compounds is shown in Table 3 The percentage levels were normalized to the media alone condition, which correspond to 100% protein synthesis.
Percent recovery of protein synthesis in stressed cells (with Tg treatment) due to the test compounds at 100 nM or 1 μM is also shown in Table 3. The levels were normalized to the media alone and to Tg alone conditions, which correspond to 100% and 0% respectively.

[2] = Homo sapiens, HEK-293T, 3 h, 100 nM test compound, 100 nM thapsigargin, 3 hours, HEK293T ATF4 luciferase reporter
[3] = Homo sapiens, HEK-293T, 3 h, 100 nM thapsigargin, 3 hours, HEK293T ATF4 luciferase reporter
[4] = Homo sapiens, HEK-293T, 3 h, 1 μM test compound, 100 nM thapsigargin, 3 hours, HEK293T ATF4 luciferase reporter
[5] = 2 h, unstressed CHO cells, 1 μM, 2 hours, read-out: % Protein synthesis in unstressed cells (1 μM test compound)
[6] = CHO cells stressed with 300 nM Tg, 1 μM compound, Tg alone = 0%, read-out: % Recovery of protein expression (1 μM test compound)

| pIC50 (ATF4; [3]) | Compound | inhibition at 0.1 µM (ATF4; [2]) | inhibition at 1 µM (ATF4; [4]) | activity at 1 µM [1, 5] | activity at 1 µM [1, 6] | % Recovery of protein expression (100 nM test compound) ([1]; CHO cells stressed with 300 nM Tg, 100 nM compound, Tg alone = 0%) | inhibition at 0.1 µM (ATF4; Homo sapiens, HEK-293T, 3 h) | inhibition at 1 µM (ATF4; Homo sapiens, HEK-293T, 3 h) | pIC50 (ATF4; Homo sapiens, HEK-293T, 3 h) | % ATF4 inhibition at 100 nM (ATF4; 100 nM test compound, 100 nM thapsigargin, 3 hours, HEK293T ATF4 luciferase reporter) | pIC50 (ATF4; 100 nM thapsigargin, 3 hours, HEK293T ATF4 luciferase reporter) | % ATF4 inhibition at 1 μM (ATF4; 1 μM test compound, 100 nM thapsigargin, 3 hours, HEK293T ATF4 luciferase reporter) | % Recovery of protein expression (1 μM test compound) ([1]; CHO cells stressed with 300 nM Tg, 1 μM compound, Tg alone = 0%) | % Protein synthesis in unstressed cells (1 μM test compound) ([1]; unstressed CHO cells, 1 μM, 2 hours) |
| --- | --- | --- | --- | --- | --- | --- | --- | --- | --- | --- | --- | --- | --- | --- |
| – | O=C(NN1CCN(CCCOc2ccc(Cl)c(F)c2)CC1)c1ccc2cc(Cl)ccc2n1 [Compound 17, 6-chloro-N-(4-(3-(4-chloro-3-fluorophenoxy)propyl)piperazin-1-yl)quinoline-2-carboxamide] | – | – | 117% | 188% | – | 58.6% | 92.7% | 7.10 | – | – | – | – | – |
| – | O=C(COc1ccc(Cl)c(F)c1)NN1CCC(NCCOc2ccc(Cl)c(F)c2)CC1 [Compound 22, 2-(4-chloro-3-fluorophenoxy)-N-(4-((2-(4-chloro-3-fluorophenoxy)ethyl)amino)piperidin-1-yl)acetamide] | – | – | 94.8% | 105% | – | 87.5% | 92.8% | 7.99 | – | – | – | – | – |
| < 6.00 | O=C(NN1CCN(C[C@@H](O)COc2ccc(Cl)c(F)c2)CC1)c1cnc(C(F)F)cn1 [Compound 66, (R)-N-(4-(3-(4-chloro-3-fluorophenoxy)-2-hydroxypropyl)piperazin-1-yl)-5-(difluoromethyl)pyrazine-2-carboxamide] | 0% | 0% | 84.9% | 17.6% | – | – | – | – | – | – | – | – | – |
| – | O=C(NN1CCC(NCCOc2ccc(Cl)c(F)c2)CC1)c1cc2cc(Cl)ccc2o1 [Compound 24, 5-chloro-N-(4-((2-(4-chloro-3-fluorophenoxy)ethyl)amino)piperidin-1-yl)benzofuran-2-carboxamide] | – | – | 144% | 183% | – | 88% | 99.5% | 7.49 | – | – | – | – | – |
| – | O=C(COc1ccc(Cl)c(F)c1)NN1CCC(NCC(O)COc2ccc(Cl)c(F)c2)CC1 (stereo not shown) [Compound 8, 2-(4-chloro-3-fluorophenoxy)-N-(4-((3-(4-chloro-3-fluorophenoxy)-2-hydroxypropyl)amino)piperidin-1-yl)acetamide] | – | – | 121% | 52.1% | – | 44.2% | 70.9% | 6.82 | – | – | – | – | – |
| > 6.00 | O=C(NN1CCN(C[C@@H](O)COc2ccc(Cl)c(F)c2)CC1)c1ccc(C(F)(F)F)cn1 [Compound 65, (R)-N-(4-(3-(4-chloro-3-fluorophenoxy)-2-hydroxypropyl)piperazin-1-yl)-5-(trifluoromethyl)picolinamide] | 22.6% | 80.5% | 99% | 51.1% | – | – | – | – | – | – | – | – | – |
| < 5.00 | O=C(NN1CCC(NC[C@H](O)COc2ccc(Cl)c(F)c2)CC1)c1ccc2cc(Cl)ccc2n1 [Compound 57, (S)-6-chloro-N-(4-((3-(4-chloro-3-fluorophenoxy)-2-hydroxypropyl)amino)piperidin-1-yl)quinoline-2-carboxamide] | 25.9% | 39.8% | 139% | 69.6% | – | – | – | – | – | – | – | – | – |
| – | O=C(COc1ccc(Cl)c(F)c1)NN1CCN(C(=O)COc2ccc(Cl)c(F)c2)CC1 [Compound 30, 2-(4-chloro-3-fluorophenoxy)-N-(4-(2-(4-chloro-3-fluorophenoxy)acetyl)piperazin-1-yl)acetamide] | – | – | 49.3% | 31.7% | – | 29.5% | 97.1% | 6.73 | – | – | – | – | – |
| – | O=C(COc1ccc(Cl)c(F)c1)NN1CCC(NC(=O)C2CNc3cc(Cl)ccc3O2)CC1 (stereo not shown) [Compound 32] | – | – | – | – | – | – | – | – | 85.7% | 7.92 | 92.4% | 74.8% | 115.7% |
| > 6.00 | COc1ccc2oc(C(=O)NN3CCC(NC[C@@H](O)COc4ccc(Cl)c(F)c4)CC3)cc2c1 [Compound 69, (R)-N-(4-((3-(4-chloro-3-fluorophenoxy)-2-hydroxypropyl)amino)piperidin-1-yl)-5-methoxybenzofuran-2-carboxamide] | 37% | 78.1% | 129% | 43.1% | – | – | – | – | – | – | – | – | – |
| – | O=C(NN1CCC(NCC(O)COc2ccc(Cl)c(F)c2)CC1)c1ccc2cc(Cl)ccc2n1 (stereo not shown) [Compound 20, 6-chloro-N-(4-((3-(4-chloro-3-fluorophenoxy)-2-hydroxypropyl)amino)piperidin-1-yl)quinoline-2-carboxamide] | – | – | 155% | 358% | – | 24.7% | 33.7% | < 5.00 | – | – | – | – | – |
| – | O=C(NN1CCN(CC(O)COc2ccc(Cl)c(F)c2)CC1)c1ccc2cc(Cl)ccc2n1 (stereo not shown) [Compound 15, 6-chloro-N-(4-(3-(4-chloro-3-fluorophenoxy)-2-hydroxypropyl)piperazin-1-yl)quinoline-2-carboxamide] | – | – | 119% | 248% | – | 87.8% | 100% | 7.91 | – | – | – | – | – |

| Compound | pIC50 (ATF4; [3]) | inhibition at 0.1 µM (ATF4; [2]) | inhibition at 1 µM (ATF4; [4]) | activity at 1 µM [1, 5] | activity at 1 µM [1, 6] | % Recovery of protein expression (100 nM test compound) ([1]; CHO cells stressed with 300 nM Tg, 100 nM compound, Tg alone = 0%) | inhibition at 0.1 µM (ATF4; Homo sapiens, HEK-293T, 3 h) | inhibition at 1 µM (ATF4; Homo sapiens, HEK-293T, 3 h) | pIC50 (ATF4; Homo sapiens, HEK-293T, 3 h) | % ATF4 inhibition at 100 nM (ATF4; 100 nM test compound, 100 nM thapsigargin, 3 hours, HEK293T ATF4 luciferase reporter) | pIC50 (ATF4; 100 nM thapsigargin, 3 hours, HEK293T ATF4 luciferase reporter) | % ATF4 inhibition at 1 μM (ATF4; 1 μM test compound, 100 nM thapsigargin, 3 hours, HEK293T ATF4 luciferase reporter) | % Recovery of protein expression (1 μM test compound) ([1]; CHO cells stressed with 300 nM Tg, 1 μM compound, Tg alone = 0%) | % Protein synthesis in unstressed cells (1 μM test compound) ([1]; unstressed CHO cells, 1 μM, 2 hours) |
| --- | --- | --- | --- | --- | --- | --- | --- | --- | --- | --- | --- | --- | --- | --- |
| O=C(NN1CCN(C[C@H](O)COc2ccc(Cl)c(F)c2)CC1)c1ccc2cc(Cl)ccc2c1 [Compound 61, (S)-6-chloro-N-(4-(3-(4-chloro-3-fluorophenoxy)-2-hydroxypropyl)piperazin-1-yl)-2-naphthamide] | 7.53 | 72.4% | 86.6% | 195% | 171% | – | – | – | – | – | – | – | – | – |
| O=C(COc1ccc(Cl)c(F)c1)NN1CCN(CC(O)COc2ccc(Cl)c(F)c2)CC1 (stereo not shown) [Compound 6, 2-(4-chloro-3-fluorophenoxy)-N-(4-(3-(4-chloro-3-fluorophenoxy)-2-hydroxypropyl)piperazin-1-yl)acetamide] | 7.51 | 75.9% | 83.8% | 97.9% | 105% | 16.7% | – | – | – | – | – | – | – | – |
| O=C(COc1ccc(Cl)c(F)c1)NN1CCN(C[C@H](O)COc2ccc(Cl)c(F)c2)CC1 (single isomer, unassigned) [Compound 51] | 7.70 | 79.3% | 100% | 110% | 22.1% | – | – | – | – | – | – | – | – | – |

— patent US11166942B2 (PRAXIS BIOTECH LLC, priority 2018, dated 2021)
